Molecules are shown by their SMILES.

Data on five molecules can be found in US20140349955A1, “USE OF FLUORINE-CONTAINING WATER SOLUBLE PLATINUM COMPLEX IN PREPARING DRUGS FOR PREVENTION AND TREATMENT OF CANCERS” (GUDUI BIOPHARMA TECHNOLOGY INC., priority 2011, published 2014).

The subject of one data set is L1210 tumor cells. Nature of the data set: Antitumor efficacy in L1210 tumor-bearing CDF1 mice (increase in life span). It is filed as in vivo. How it is done:
In the following test, antitumor efficacy studies were performed using 8-9 weeks old female CDF1 mice, the average weight of the animal is 20-25 grams. L1210 tumor cells (about 10^5 cells per mouse) were inoculated intraperitoneally. The fluorine-containing water-soluble platinum complexes were used to treat the tumor-bearing animals and the efficacy was compared compared with the clinical platinum antitumor drugs. […] Drugs were administered intraperitoneally on day 1 and day 4 after tumor cell transplantation. The number of experimental animals in each group was 6.
The experimental animals were purchased from Vital River Laboratory Animal Technology Co. Ltd., Tumor cells L1210-leukemia cells were purchased from Shanghai An Yan Commercial Trade Co. Ltd.
The increase in life span (ILS) is calculated as follows:
Wherein, St=the weighted median survival time of treated animals; Su=the weighted median survival time of untreated animals

The conditions of data set [1]: cited from earlier work.
The test system of the next data set is A549. As to the kind of experiment: MTS cytotoxicity test, A549. The settings on record: 96 h, read-out: IC50 value in human tumor cells. The format is cell-based. As for the experimental part: (§1) Containing 10% bovine fetal serum, 1 mM of sodium pyruvate, 2 mM of L-glutamine, 50 U/mL of penicillin, 50 μg/mL of streptomycin
(§2) Human tumor cells: dul45-human prostate cancer; MCF-7-human breast cancer; SK0V3-human ovarian carcinoma, HT-29-human colon cancer; A549-human non-small cell lung cancer (adenocarcinoma), H460-human non-small cell lung cancer (large cell carcinoma), and animal tumor cells: L1210-mice leukemia cells used in the following activity test experiments were all purchased from Shanghai An Yan Commercial Trade Co., Ltd.
(§3) MTS test method was used in cytotoxicity assay. The tumor cells of logarithmic phase were collected, and then the concentration of cell suspension was adjusted, 100 μL of the cell suspension was added to each well, the cells were placed at 1000-10000 cells/well (edge well filled with sterile PBS). Cells were incubated at 37° C. with 5% CO2 to make cell monolayer overspread the bottom of each well (96-well flat-bottomed microplate). 100 μL of different concentrations of the test compounds was added to each well. Each condition was measured in five replicates. The microplate was incubated at 37° C. with 5% CO2 for 96 h and checked with inverted microscope. MTS working reagent: To 2 mL of MTS (2 mg/mL, prepared by DPBS) was added 100 μL of PMS (1 mg/mL, prepared by DPBS). The cell culture medium was discarded after centrifugation, the cell culture plate was carefully washed 2-3 times with PBS. Before detecting the absorbance value (OD), to each sample containing well was added 100 μL of cell culture medium, then 20 μL of MTS working reagent was added. After incubation at 37° C. with 5% CO2 for 2 h, the OD (optical density) value was detected at 490 nm.
(§4) Control group: the conditions are the same as the above without adding the active ingredient of antitumor agents, and the OD value was detected at 490 nm on the end of the experiment.
(§5) The cell inhibiting rate of the drugs to tumor cell growth was calculated according to the following formula:
(§6) 1) Cell viability (%)=OD of treated group/OD of control group×100%
(§7) 2) The cell viabilities under the different drug concentrations were determined, and then plotted against drug concentration. The IC50 value is the corresponding concentration in the obtained curve when the cell viability was 50%.

A further data set has as its system H460. Nature of the data set: MTS cytotoxicity test, H460. It is filed as cell-based. Particulars: 96 h, read-out: IC50 value in human tumor cells. As for the experimental part:
as §1, §2, §3, §4, §5, §6, §7

The next data set concerns MCF7. As to the kind of experiment: MTS cytotoxicity test, MCF7. It is filed as cell-based. The settings on record: 96 h, read-out: IC50 value in human tumor cells. As for the experimental part: as §1, §2, §3, §4, §5, §6, §7
Another data set deals with SKOV3. As to the kind of experiment: MTS cytotoxicity test, SKOV3. It is filed as cell-based. Particulars: 96 h, read-out: IC50 value in human tumor cells. How it is done: as §1, §2, §3, §4, §5, §6, §7
Another data set has as its system DU145. Nature of the data set: MTS cytotoxicity test, DU145. It is filed as cell-based. Particulars: 96 h, read-out: IC50 value in human tumor cells. As for the experimental part: as §1, §2, §3, §4, §5, §6, §7
The next data set relates to HT29. Nature of the data set: MTS cytotoxicity test, HT29. The format is cell-based. Particulars: 96 h, read-out: IC50 value in human tumor cells. As for the experimental part:
as §1, §2, §3, §4, §5, §6, §7

Setting [2] is: 24 mg/Kg i.p. on day 1 and day 4.
[3] abbreviates: 40 mg/Kg i.p. on day 1 and day 4.
[4] abbreviates: 80 mg/Kg i.p. on day 1 and day 4.
The mark [5] stands for this setting: 50 mg/Kg i.p. on day 1 and day 4.
[6] abbreviates: 100 mg/Kg i.p. on day 1 and day 4.
The mark [7] stands for this setting: 200 mg/Kg i.p. on day 1 and day 4.

Regarding `N.N.O=C([O-])C1(C(=O)[O-])CCC1.[Pt+2]` [Carboplatin], the results for the “ILS (%)” value in the data set on L1210 tumor cells (setting [2]), in the data set on L1210 tumor cells (setting [3]) and with L1210 tumor cells (setting [4]) were 10%, 24% and 55%, respectively. Moreover, the “Survived Animals on Day 42” value with L1210 tumor cells (setting [2]) was 0/6; in the data set on L1210 tumor cells (setting [3]), 0/6; in the data set on L1210 tumor cells (setting [4]) it was 1/6. Moreover, the “Weight Changes (g)” value in the data set with L1210 tumor cells (24 mg/Kg i.p. on day 1 and day 4, weight changes from the first day to the seventh day) was “+0 g”. Further, the “Weight Changes” value with L1210 tumor cells (40 mg/Kg i.p. on day 1 and day 4, weight changes from the first day to the seventh day) is -0.3 g; with L1210 tumor cells (80 mg/Kg i.p. on day 1 and day 4, weight changes from the first day to the seventh day), -1.2 g. Further, the water solubility in data set [1] is on record as 17 mg/mL.
Consider `O=C1[O][Pt]2([NH]C3CCCCC3[NH]2)[O]C(=O)C1(F)CCOC1OC(CO)C(O)C(O)C1O` (stereo not shown) [Complex 5], for which the IC50 worked out at 0.653 µM in the data set on A549; 10.2 µM in the data set with H460; 0.411 µM in the data set on MCF7; 2.22 µM in the data set on SKOV3; 2.6 µM in the data set on DU145; 2.16 µM with HT29.
As for `O=C1[O][Pt]2([NH]C3CCCCC3[NH]2)[O]C(=O)C1(F)CCCOC1OC(CO)C(O)C(O)C1O` (stereo not shown) [Complex 6], the IC50 in the data set with A549 is 21.8 µM; in the data set with H460, 22.4 µM; in the data set with MCF7, 2.04 µM; in the data set with SKOV3, 22.2 µM; in the data set with DU145, 9.96 µM; in the data set on HT29, 2.3 µM.
In the case of `O=C1[O][Pt]2([NH]C3CCCCC3[NH]2)[O]C(=O)C1(F)CCOC1OC(CO)C(O)C(O)C1O` (stereo not shown) [Complex 8], the IC50 was 5.12 µM with A549; 10 µM with H460; 5.1 µM with MCF7; 49.4 µM in the data set with SKOV3; 5.11 µM in the data set with DU145; 1.07 µM in the data set with HT29.
Turning to `O=C1[O][Pt]2([NH]C3CCCCC3[NH]2)[O]C(=O)C1(F)CCCOC1OC(CO)C(O)C(O)C1O` (stereo not shown) [Complex 9], the IC50 stood at 10.2 µM with A549; 21.4 µM in the data set with H460; 6.71 µM in the data set with MCF7; 21.3 µM in the data set on SKOV3; 7.04 µM in the data set on DU145; 1.2 µM with HT29. Also, the “ILS (%)” value in the data set with L1210 tumor cells (setting [5]), in the data set with L1210 tumor cells (setting [6]) and with L1210 tumor cells (setting [7]) was more than 400% in each case. The “Survived Animals on Day 42” value in the data set on L1210 tumor cells (setting [5]), in the data set with L1210 tumor cells (setting [6]) and with L1210 tumor cells (setting [7]) was 6/6 each time. For the same molecule, the “Weight Changes (g)” value is reported as “+1.5 g” in the data set on L1210 tumor cells (50 mg/Kg i.p. on day 1 and day 4, weight changes from the first day to the seventh day); “+0.1 g” with L1210 tumor cells (100 mg/Kg i.p. on day 1 and day 4, weight changes from the first day to the seventh day). For the same molecule, the “Weight Changes” value with L1210 tumor cells (200 mg/Kg i.p. on day 1 and day 4, weight changes from the first day to the seventh day) was -0.5 g.
